Test results reported in PMC10726355, “Small Molecule Ligands of the BET-like Bromodomain, SmBRD3, Affect Schistosoma mansoni Survival, Oviposition, and Development” (Journal of Medicinal Chemistry, 2023).
≈ marks a conversion by molar mass, not a printed value. Entries after “also recorded” stand apart in the source; their conditions may differ. Read-outs that look alike come from different tables or passages of the source.

Experiments:
[1] = chromLogD assay; format: physicochemical; details: reversed phase HPLC column (Gemini NX C18), pH 7.4
Description: Lipophilicity: a chromLogD assay was carried out by the Physchem Team, Discovery Analytical, NCE Molecular Discovery at GSK. The chromatographic hydrophobicity index (CHI)[46],[47] values were measured using reversed phase HPLC column (50 × 2 mm […] Gemini NX C18, Phenomenex, UK) with fast acetonitrile gradient at starting mobile phase of pHs 2, 7.4, or 10.5. CHI values were derived directly from the gradient retention times using calibration parameters for standard compounds. The CHI value approximates to the volume % organic concentration when the compound elutes. CHI was linearly transformed into a chromLogD[48] value by least-squares fitting of experimental CHI values to calculated cLogP values for over 20000 research compounds.

[2] = biological target: T1, HsBRD4(1) (Homo sapiens, UniProt O60885); assay: Isothermal titration calorimetry (ITC), HsBRD4(1); format: binding; details: single value ± error of the curve fit
T1 construct: HsBRD4(1) Kd (ITC, nM); made in house; host or cells: E. coli BL21(DE3)

[3] = CAD solubility assay; format: physicochemical; details: phosphate buffered saline, pH 7.4, phosphate buffered saline at pH 7.4; read-out: Aqueous Solubility by CAD
Description: A CAD solubility assay was carried out by Physchem Team, Discovery Analytical, NCE Molecular Discovery at GSK. 5 μL of 10 mM DMSO stock solution was diluted to 100 μL with pH 7.4 phosphate buffered saline, equilibrated for 1 h at room temperature, and filtered through Millipore MultiscreenHTS-PCF filter plates (MSSL BPC). The filtrate was quantified using a suitably calibrated charged aerosol detector.[45]

[4] = biological target: SmBRD3(2) (Schistosoma mansoni, UniProt A0A5K4ESD7); assay: biochemical; format: binding; details: for N number, binding to SmBRD3(2), Repeat 1 / N number, binding to SmBRD3(2), Repeat 2 / N number, binding to SmBRD3(2), Repeat 3 / N number, binding to SmBRD3(2), Mean: ITC stoichiometry; for N number, binding to SmBRD3(2), Mean: mean of repeats
[5] = test system: S. mansoni miracidia; assay: Ex vivo miracidia to sporocyst transformation screening; set-up: species or system Schistosoma mansoni; details: 0.5-25 μM in 1% DMSO, 48 h
Description: S. mansoni miracidia were obtained by hatching of schistosome eggs as previously described.[73] The resulting miracidial suspension was collected, washed with Chernin’s balanced salt solution (CBSS),[73] and enumerated prior to being used for ex vivo miracidia to sporocyst screens as previously reported.[66],[73] Each compound was tested at 0.5, 2.0, 5.0, 10, and 25 μM final concentrations (in 1% DMSO). Each treatment was set up in duplicate (15–25 miracidia/well). Each titration was performed in three independent experiments (two technical replicates per data point). Parasites cultured in CBSS (containing 1% DMSO) were included as negative controls. After 48 h incubation at 26 °C in the dark, dead, fully transformed and partially transformed miracidia were enumerated as previously described.[74],[75]

[6] = biological target: SmBRD3(1,2) (Schistosoma mansoni, UniProt A0A5K4ESD7); assay: biochemical; format: binding; details: for N number, binding to SmBRD3(1,2): ITC stoichiometry, n=1 ± error of curve fit
[7] = test system: SmBRD3(1,2); assay: Differential scanning fluorimetry (thermal shift), SmBRD3(1,2); details: DSF; 50 μM compound
Description: Reported ΔTm values are the mean of two replicates.
The differential scanning fluorimetry (DSF) or thermal stability assays were carried out following the protocol described by Niesen et al. and data were analysed as described previously.8 Thermal melting experiments were carried out using the Mx3005p real-time PCR machine (Agilent) and employing a protein concentration of 5 μM for the schistosomal bromodomains [SmBRD3(2),
the DMSO content was 0.5% (v/v). Buffer conditions were 50 mM HEPES buffer, pH 7.5, 500 mM NaCl and a 1:500 dilution of SYPRO® Orange (Invitrogen, CA) was used. The 96-well PCR plates were sealed and centrifuged for 2 min at 1000 rpm at 25 °C before measurement. The temperature was raised with a step of 1 °C per 30 s from 25 °C to 85 °C, and fluorescence readings were taken
difference between the transition midpoints of sample and reference wells containing protein without inhibitor in the same plate. Reported ΔTm values are the mean of two replicates.
Isothermal titration calorimetry experiments were performed on a MicroCal PEAQ-ITC Automated or Manual (Malvern) and analysed with the MicroCal PEAQ-ITC Analysis software (Malvern 1.1.0.1262) using a single binding site model. For each experiment, the first data point was removed from the analysis. The proteins were dialysed at 4 °C overnight in a Slide-A-LyzerR MINI Dialysis Device (2000 MWCO; Thermo Scientific Life Technologies) into 50 mM HEPES, 150 mM NaCl containing 0.2% DMSO; pH 7.4. Proteins were centrifuged to remove aggregates (3 min, 3000 rpm, 25 °C).
Compounds were dissolved as a DMSO stock solution and diluted to the required concentration using dialysis buffer (DMSO free) and to a final DMSO concentration of 0.2% (unless otherwise specified). The cell was stirred at 750 rpm, reference power set to 5 μcal/s and temperature held at 25 °C. After an initial delay of 60 s, 19 x 2 μL injections (first injection 0.4 μL) were performed with a spacing of 180 s. […]

[8] = test system: adult male S. mansoni; assay: Determination of compound parasite permeability (LCMS of worm lysate); format: in vitro ADME, Schistosoma mansoni; details: worms treated with 20 μM of the same compound for 24 h; LCMS
[9] = Compound conversion in media with or without worms (LCMS); format: in vitro ADME; details: media in the presence or absence of worms; 20 μM; 24 h
Description: As the low solubility of the ethyl ester derivatives prevented us from determining their affinity for SmBRD3(2) using ITC, it is possible that these compounds are themselves inhibitors of SmBRD3(2). Alternatively, the ethyl esters could function as pro-drugs that release the corresponding acid in the parasite. To investigate compound permeability, adult worms were treated with 20 μM of the acid 15 or the ethyl ester 22 for 24 h, and then the media exchanged three times. The worms were then lysed and the levels of the acid 15 or the ethyl ester 22 were determined using LCMS (Figure S50).
Figure S-52. A. Estimation of the concentration of 15 and 22 in media after incubation with 22 in the presence and absence of S. mansoni. The concentration estimations were calculated as an average (presence of worm n=3, no worm n=2) from the analysis media in the presence (5 worms per well) or absence of worms, with error bars representing the s.e.m. B. Estimation of the concentration of 1 and 2 in media after incubation with 2 in the presence and absence of S. mansoni. The concentration estimations were calculated as an average (presence of worm n=2, no worm n=1) from the analysis of media in the presence (5 worms per well) or absence of worms with error bars representing the […]

[10] = test system: S. mansoni schistosomula; assay: Ex vivo schistosomula screening (Roboworm high content imaging); set-up: species or system Schistosoma mansoni; details: 20 μM (Figure 7) or 10 μM (Figure S48); 72 h
Description: A high-throughput imaging platform that quantifies both phenotype and motility ex vivo, was used to screen compounds against schistosomula; their effects were assessed as previously described.[20] Briefly, the schistosomula stage of S. mansoni was obtained by mechanical transformation of cercariae, dispensed into 384-well tissue culture plates, and dosed with 20 μM (Figure 7) or 10 μM (Figure S48) of each compound. Following 72 h coincubation of the schistosomula and compound, the plate was subjected to high content imaging to quantify the effects of each compound.
S. mansoni schistosomula were obtained by mechanical transformation from cercariae as previously described,[64] distributed in 384-well tissue culture plates (PerkinElmer, catalogue number 6007460) at 120 parasites/well and dosed with the selected compounds as previously reported.[65]−[68] For this study, each compound (as 10 mM DMSO stock solution) was initially tested at two concentration points (20 and 10 μM final concentration, in duplicates) in at least four independent screens (Z′ scores above 0.35).[69] Each screen contained both positive (10 μM auranofin (AUR) in 0.625% DMSO) and negative (0.625% DMSO) controls. […] Following 72 h schistosomula/compound coincubation, the plate was analyzed by the Roboworm platform.[70] EC50 values were calculated from the titrated concentrations by nonlinear regression, after log transformation of concentrations and data normalization using GraphPad Prism 7.02.

[11] = test system: S. mansoni adult worms; assay: Ex vivo adult worm screening (motility, IVLEs, pairing); set-up: species or system Schistosoma mansoni; details: 72 h
Description: S. mansoni adult worms were recovered by hepatic portal vein perfusion from TO mice (Mus musculus HsdOLa:TO - Tuck Ordinary; Envigo, UK) that were percutaneously infected 7 weeks earlier with 180 cercariae.[65],[71] Following perfusion, schistosomes were washed and processed as previously described.[65],[66] Subsequently, schistosome pairs were seeded into 48 well tissue culture plates (1 worm pair/well, in duplicate) and dosed with the compounds (20 μM in 0.2% DMSO). DMSO (0.2%) and praziquantel (10 μM in 0.1% DMSO) were also included as negative and positive controls, respectively. Parasite motility was assessed by a digital image processing-based system (WormassayGP2),[66] modified after Wormassay.[72]In vitro laid eggs (IVLEs) were enumerated and the presence or absence of paired worms was noted.

[12] = ITC, read-out: SmBRD3(2) pKd (converted)
[13] = ITC, single run ± error of curve fit, Repeat 2, read-out: SmBRD3(2) Kd, Repeat 2
[14] = ITC, single run ± error of curve fit, Repeat 3, read-out: SmBRD3(2) Kd, Repeat 3
[15] = SmBRD3(1,2) Kd, ITC, n = 1 ± error of the curve fit
[16] = ITC, single run ± error of curve fit, Repeat 1
[17] = ITC, single value ± error of the curve fit or mean of 2-3 repeats ± s.e.m.

| Compound | chromatographic logD [1] | HsBRD4(1) Kd (ITC) [2] | Kd [2] | solubility at 1 h [3] | N number, binding to SmBRD3(2), Repeat 1 ([4]; Repeat 1) | N number, binding to SmBRD3(2), Repeat 2 ([4]; Repeat 2) | N number, binding to SmBRD3(2), Repeat 3 ([4]; Repeat 3) | N number, binding to SmBRD3(2), Mean [4] | Kd [4, 12] | Kd [4, 13] | Kd [4, 14] | Kd ([4]; read-out: SmBRD3(2) Kd) | N number, binding to SmBRD3(1,2) [6] | Kd [6, 15] | Kd ([6]; SmBRD3(1,2) pKd, ITC) | Thermal stabilisation (ΔTm) of SmBRD3(1,2) [7] | SmBRD3(2) Kd, Repeat 1 [4, 16] | SmBRD3(2) Kd [4, 17] | Effect on schistosomula phenotype [10] | Toxicity to miracidia (dead parasites) [5] | also measured |
| --- | --- | --- | --- | --- | --- | --- | --- | --- | --- | --- | --- | --- | --- | --- | --- | --- | --- | --- | --- | --- | --- |
| CC(=O)N1c2ccc(-c3ccc(C(=O)O)cc3)cc2[C@H](Nc2ccc3ccsc3c2)C[C@@H]1C [Compound 9, 4-{(2S,4R)-1-Acetyl-4-[(1-benzothiophen-6-yl)amino]-2-methyl-1,2,3,4-tetrahydroquinolin-6-yl}benzoic Acid] | 2.83 | high affinity | 64.4 ± 20.7 nM | ≥ 259 µM | 1.52 ± 2.2e-2 | 1.57 ± 3.4e-2 | 1.64 ± 3.3e-2 | 1.58 | 631 nM | 778 ± 179 nM | 753 ± 176 nM | 701 ± 64.9 nM |  |  |  |  |  |  |  |  | Kd ([4]; ITC, single run ± error of curve fit, Repeat 1, read-out: SmBRD3(2) Kd, Repeat 1): 572 ± 103 nM |
| Cc1noc(C)c1-c1cc(O)cc(C(O)c2ccccc2)c1 (stereo not shown) [OXFBD02 (1), OXFBD02, reference compound] |  |  |  |  |  |  |  |  |  |  |  |  | 1.61 ± 3.3e-2 | 683 ± 166 nM | 631 nM | stabilize SmBRD3(1,2) | No binding | no binding detected; also recorded: No detectable binding |  |  | Effect on miracidia to sporocyst transformation ([5]; 26 °C): modest effects |
| CC(=O)N1c2ccc(-c3ccc(C(=O)O)cc3)cc2[C@H](Nc2ccc3ncccc3c2)C[C@@H]1C [Compound 15, 4-{(2S,4R)-1-Acetyl-2-methyl-4-[(quinolin-6-yl)amino]-1,2,3,4-tetrahydroquinolin-6-yl}benzoic Acid] |  | high affinity | 13.5 ± 2.47 nM |  | 1.48 ± 2.5e-2 | 1.51 ± 2.0e-2 | 1.69 ± 1.8e-2 | 1.56 | 398 nM | 361 ± 70.2 nM | 411 ± 60.4 nM | 364 ± 26.3 nM |  |  |  |  |  |  |  |  | Kd ([4]; read-out: SmBRD3(2) Kd, Repeat 1): 320 ± 82.8 nM; Quantity of compound found in lysed adult worms [8]: lower quantities |
| CC(=O)Oc1cc(-c2c(C)noc2C)cc(C(O)c2ccccc2)c1 (stereo not shown) [OXFBD03 (2), OXFBD03, reference compound] |  |  |  |  |  |  |  |  |  |  |  |  | 1.17 ± 1.7e-2 | 675 ± 97.6 nM | 631 nM |  | No binding | No detectable binding |  |  | Conversion in media (ester hydrolysis / deacetylation) [9]: rapidly deacetylated |
| CCOC(=O)c1ccc(-c2ccc3c(c2)[C@@H](Nc2ccc4ccsc4c2)C[C@@H](C)N3C(C)=O)cc1 [Compound 17, Ethyl 4-{(2R,4S)-1-Acetyl-4-[(1-benzothiophen-6-yl)amino]-2-methyl-1,2,3,4-tetrahydroquinolin-6-yl}benzoate] | 7.61 |  |  | 1 µM (≈ 0.485 µg/mL) |  |  |  |  |  |  |  |  |  |  |  |  |  |  | did not have substantial effects | toxic at the higher concentrations | Effect on schistosomula motility [10]: did not have substantial effects; Effect on adult worm movement ([11]; 20 μM in 0.2% DMSO): some modest effects; Effect on egg count (in vitro laid eggs) ([11]; 20 μM): some modest effects; SmBRD3(2) Kd [4]: No binding; SmBRD3(2) Kd, Repeat 1 [4]: No binding |
| (+)-JQ1 [(+)-JQ1 (5), reference compound] |  |  |  |  |  |  |  |  |  |  |  |  | 3.87 ± 7.0 e-2 |  |  | stabilize SmBRD3(1,2) |  |  | showed activity | toxic at the higher concentrations | SmBRD3(1,2) pKd ([6]; ITC): 6.4; Kd ([6]; ITC, n = 1 ± error of the curve fit, read-out: SmBRD3(1,2) Kd): 445 ± 106 nM; SmBRD3(2) Kd [4]: no binding detected; also recorded: No detectable binding; SmBRD3(2) Kd, Repeat 1 [4]: No binding |
